# Data: patent US20250041373A1, “EXTRACTION METHOD OF HIBISCUS SABDARIFFA L. TAITUNG NO. 6, HIBISCUS SABDARIFFA L. TAITUNG NO. 6 EXTRACT USING THE SAME, AND USES THEREOF” (WEL-BLOOM BIO-TECH CORPORATION, priority 2023, published 2025)
# Test system: B16-F10 melanoma cells
# Assay: melanin content analysis in α-MSH-treated B16-F10 melanoma cells
# Format: cell-based
# Details: co-treatment with 500 nM α-MSH; positive control, concentration not given; FIG. 6
# Procedure: Further, in the present embodiment, an ability of the Hibiscus sabdariffa L. ‘TAITUNG NO. 6’ extract to inhibit melanin production is evaluated by a melanin content analysis, and a method thereof is as follows. B16-F10 melanoma cells (1×10^5) are seeded in a 24-well culture plate and treated with 500 nM α-melanocyte stimulating hormone (α-MSH) at 37° C. for 24 hours. Then, these cells are treated with various concentrations of the Hibiscus sabdariffa L. ‘TAITUNG NO. 6’ extract for 48 hours, and are treated with trypsin after being rinsed with PBS. A cell pellet is collected by centrifugation at 10,000 g for 20 minutes at a room temperature, and is then lysed with 1N NaOH for 60 minutes. The melanin content is analyzed by comparing an absorbance value of a test sample at 405 nm with a standard curve obtained by using a synthetic melanin.
smiles,measurement,value
O=c1cc(CO)occ1O [kojic acid],melanin content of the melanoma cells,significantly decreased
